From ChEMBL document CHEMBL4680194, “Synthesis and biological evaluation of 1,2,4-triazole derivatives as potential neuroprotectant against ischemic brain injury” (Eur J Med Chem, 2020)
Calls of active or inactive are those of the source. The rule behind the calls is not given here.

Legend:
[1] = target: T1, Nuclear factor erythroid 2-related factor 2 (Rattus norvegicus) (UniProt O54968); assay: Induction of Nrf2 nuclear translocation in rat PC-12 cells assessed as H2O2-induced GSH-px level at 5 uM incubated for 1 hr followed by H2O2 stimulation and measured after 5 hrs (reference value: 45.92 +/- 3.64 mU/mg); type: cell-based; conditions: time 6.0 hrs
T1 sequence (whole entry): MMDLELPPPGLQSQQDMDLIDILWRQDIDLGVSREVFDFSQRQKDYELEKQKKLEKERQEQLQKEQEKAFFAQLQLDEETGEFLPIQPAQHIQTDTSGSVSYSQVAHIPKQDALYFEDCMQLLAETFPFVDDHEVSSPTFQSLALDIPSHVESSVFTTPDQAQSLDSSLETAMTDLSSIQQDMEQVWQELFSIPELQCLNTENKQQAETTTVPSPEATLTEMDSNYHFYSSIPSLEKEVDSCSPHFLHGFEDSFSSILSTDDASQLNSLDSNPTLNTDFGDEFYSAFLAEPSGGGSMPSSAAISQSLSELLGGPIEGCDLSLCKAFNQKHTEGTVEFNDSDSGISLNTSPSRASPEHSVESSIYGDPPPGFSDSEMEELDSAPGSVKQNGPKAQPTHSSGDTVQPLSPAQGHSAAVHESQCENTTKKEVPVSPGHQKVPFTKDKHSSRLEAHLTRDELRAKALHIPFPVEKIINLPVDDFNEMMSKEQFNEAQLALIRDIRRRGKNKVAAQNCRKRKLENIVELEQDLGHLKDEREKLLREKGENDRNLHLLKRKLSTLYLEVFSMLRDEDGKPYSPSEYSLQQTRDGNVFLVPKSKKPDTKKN

Rattus norvegicus [2] = assay: Neuroprotective activity in Sprague-Dawley rat model of middle cerebral artery occlusion-induced ischemic injury assessed as infarction volume at 10 mg/kg, ip administered TID and measured after 6 hrs by TTC staining based assay (reference value: 28.67 +/- 2.90 %); type: functional
PC-12 [3] = assay: Inhibition of H2O2-induced mitochondrial membrane potential loss in rat PC-12 cells assessed as increase in red fluoresence at 2.5 to 10 uM incubated for 1 hr followed by H2O2 stimulation and measured after 5 hrs by JC-1 staining based fluorescence microscopy; type: functional, cell-based; conditions: dose 2.5-10 µM, time 6.0 hrs
[4] = AUC (0 to infinity) in Sprague-Dawley rat at 20 mg/kg, po measured upto 24 hrs by LC-MS/MS analysis; type: ADME, organism-based; parameters: route oral, dose 20 mg/kg, time <=24; conditions: in vivo
[5] = target: T1, Nuclear factor erythroid 2-related factor 2 (Rattus norvegicus); assay: Induction of Nrf2 nuclear translocation in rat PC-12 cells assessed as H2O2-induced GSH-px level at 10 uM incubated for 1 hr followed by H2O2 stimulation and measured after 5 hrs (reference value: 45.92 +/- 3.64 mU/mg); type: cell-based; conditions: time 6.0 hrs
[6] = Toxicity in […] assessed as behavior changes at 400 mg/kg, ip observed after 12 hrs; type: organism-based; conditions: in vivo
Rattus norvegicus [7] = assay: Neuroprotective activity in Sprague-Dawley rat model of middle cerebral artery occlusion-induced ischemic injury assessed as infarction volume at 30 mg/kg, ip administered TID and measured after 6 hrs by TTC staining based assay (reference value: 28.67 +/- 2.90 %); type: functional
[8] = target: T1, Nuclear factor erythroid 2-related factor 2 (Rattus norvegicus); assay: Induction of Nrf2 nuclear translocation in rat PC-12 cells assessed as SNP-induced GSH-px level at 2.5 uM incubated for 1 hr followed by SNP stimulation and measured after 24 hrs (reference value: 37.70 +/- 2.88 mU/mg); type: cell-based; conditions: time 25.0 hrs
[9] = target: T1, Nuclear factor erythroid 2-related factor 2 (Rattus norvegicus); assay: Induction of Nrf2 nuclear translocation in rat PC-12 cells assessed as SNP-induced GSH-px level incubated for 1 hr followed by SNP stimulation and measured after 24 hrs; type: cell-based; conditions: dose 2.5-10 µM, time 25.0 hrs
[10] = Toxicity in […] assessed as body weight at 400 mg/kg, ip measured on day 7 (reference value: 24.4 to 28.4 g); type: organism-based; conditions: in vivo, 168 h, time 7 day
PC-12 [11] = assay: Cytoprotective activity against H2O2-induced cell death in rat PC-12 cells assessed as increase in cell viability at 10 uM incubated for 1 hr followed by H2O2 stimulation and measured after 5 hrs by MTT assay; type: functional; conditions: time 6 hrs
PC-12 [12] = assay: Antioxidant activity in rat PC-12 cells assessed as reduction in SNP-induced ROS level incubated for 1 hr followed by SNP stimulation and measured after 24 hrs by DCFH-DA staining based fluorescence microscopy; type: functional, cell-based; conditions: dose 2.5-10 µM, time 25.0 hrs
PC-12 [13] = assay: Inhibition of H2O2-induced apoptosis in rat PC-12 cells assessed as effect on cell morphology incubated for 1 hr followed by H2O2 stimulation and measured after 5 hrs by Hoechst 33258 staining based fluorescence microscopy; type: functional; conditions: dose 2.5-10 µM, time 6.0 hrs
[14] = MRT in Sprague-Dawley rat at 20 mg/kg, po measured upto 24 hrs by LC-MS/MS analysis; type: ADME, organism-based; conditions: in vivo
[15] = target: T1, Nuclear factor erythroid 2-related factor 2 (Rattus norvegicus); assay: Induction of Nrf2 nuclear translocation in rat PC-12 cells assessed as H2O2-induced SOD level incubated for 1 hr followed by H2O2 stimulation and measured after 5 hrs; type: cell-based; conditions: dose 2.5-10 µM, time 6.0 hrs
[16] = MRT in Sprague-Dawley rat at 2 mg/kg, iv measured upto 24 hrs by LC-MS/MS analysis; type: ADME, organism-based; conditions: in vivo
PC-12 [17] = assay: Inhibition of H2O2-induced apoptosis in rat PC-12 cells assessed as reduction in condensed nuclei incubated for 1 hr followed by H2O2 stimulation and measured after 5 hrs by Hoechst 33258 staining based fluorescence microscopy; type: functional, cell-based; conditions: dose 2.5-10 µM, time 6.0 hrs
[18] = target: T1, Nuclear factor erythroid 2-related factor 2 (Rattus norvegicus); assay: Induction of Nrf2 nuclear translocation in rat PC-12 cells assessed as SNP-induced SOD level at 10 uM incubated for 1 hr followed by SNP stimulation and measured after 24 hrs (reference value: 23.74 +/- 2.02 U/mg); type: cell-based; conditions: time 25.0 hrs
Rattus norvegicus [19] = assay: Neuroprotective activity in Sprague-Dawley rat model of middle cerebral artery occlusion-induced ischemic injury assessed as decrease in IL-1beta level at 3 to 30 mg/kg, ip administered TID and measured after 24 hrs by ELISA; type: functional, organism-based; conditions: dose 3-30 mg/kg
[20] = target: T1, Nuclear factor erythroid 2-related factor 2 (Rattus norvegicus); assay: Induction of Nrf2 nuclear translocation in rat PC-12 cells assessed as H2O2-induced SOD level at 5 uM incubated for 1 hr followed by H2O2 stimulation and measured after 5 hrs (reference value: 29.69 +/- 1.65 U/mg); type: cell-based; conditions: time 6.0 hrs

## COc1ccc(-c2nc(-c3ccccc3O)n(-c3ccc(S(N)(=O)=O)cc3)n2)c(O)c1
[1]
  Activity: 65.2 mU/mg
Rattus norvegicus [2]
  Activity: 12.59%
PC-12 [3]
  inhibition: Active
[4]
  AUC(0-inf): 14200 ng·h/mL
[5]
  Activity: 77.9 mU/mg
[6]
  Activity: Non-Toxic
Rattus norvegicus [7]
  Activity: 18.06%
[8]
  Activity: 42.5 mU/mg
[9]
  Activity: Dose-dependent effect
[10]
  Activity: 25.7 g
PC-12 [11]
  Activity: 30%
PC-12 [12]
  inhibition: Dose-dependent effect
PC-12 [13]
  inhibition: Dose-dependent effect
[14]
  MRT: 6.32 h
[15]
  Activity: Dose-dependent effect
[16]
  MRT: 2.37 h
PC-12 [17]
  inhibition: Dose-dependent effect
[18]
  Activity: 39.1 U/mg
Rattus norvegicus [19]
  Activity: Active
[20]
  Activity: 38.9 U/mg
